Values after ≈ are worked out from the molar mass of the structure shown.
Tests used:
Assay type in all cases: functional
Details in all cases: time 18-20 hrs
Staphylococcus aureus [1] = test: Antibacterial activity against methicillin-sensitive Staphylococcus aureus GP-001 ATCC 25923 assessed as reduction in bacterial growth in CAMHB incubated for 18 to 20 hrs by broth dilution method
Staphylococcus aureus [2] = test: Antibacterial activity against methicillin-resistant Staphylococcus aureus GP-020 ATCC 43300 assessed as reduction in bacterial growth in CAMHB incubated for 18 to 20 hrs by broth dilution method
Staphylococcus aureus [3] = test: Antibacterial activity against methicillin-resistant Staphylococcus aureus GP-021 ATCC 33591 assessed as reduction in bacterial growth in CAMHB incubated for 18 to 20 hrs by broth dilution method
Staphylococcus aureus [4] = test: Antibacterial activity against vancomycin intermediate and methicillin resistant Staphylococcus aureus GP-035 ATCC 700699 assessed as reduction in bacterial growth in CAMHB incubated for 18 to 20 hrs by broth dilution method
Staphylococcus aureus [5] = test: Antibacterial activity against daptomycin and methicillin resistant Staphylococcus aureus GP-036 assessed as reduction in bacterial growth in CAMHB incubated for 18 to 20 hrs by broth dilution method
Enterococcus sp. [6] = test: Antibacterial activity against Enterococcus sp. GP-024 ATCC 35667 assessed as reduction in bacterial growth in CAMHB incubated for 18 to 20 hrs by broth dilution method
Enterococcus sp. [7] = test: Antibacterial activity against vancomycin resistant Enterococcus sp. GP-026 ATCC 700221 assessed as reduction in bacterial growth in CAMHB incubated for 18 to 20 hrs by broth dilution method
[8] = test system: Staphylococcus epidermidis; test: Antibacterial activity against Staphylococcus epidermidis GP-017 ATCC 12228 assessed as reduction in bacterial growth in CAMHB incubated for 18 to 20 hrs by broth dilution method
[9] = test system: Staphylococcus epidermidis; test: Antibacterial activity against Staphylococcus epidermidis GP-033 NRS 60 assessed as reduction in bacterial growth in CAMHB incubated for 18 to 20 hrs by broth dilution method

SMILES | MIC80 (Staphylococcus aureus [1]) | MIC80 (Staphylococcus aureus [2]) | MIC80 (Staphylococcus aureus [3]) | MIC80 (Staphylococcus aureus [4]) | MIC80 (Staphylococcus aureus [5]) | MIC80 (Enterococcus sp. [6]) | MIC80 (Enterococcus sp. [7]) | MIC80 [8] | MIC80 [9]
CCCCCCCCCn1c(=O)c2c(O)cc(=O)oc2c2ccccc21 | 4 µg/mL (≈ 11.3 µM) | 2 µg/mL (≈ 5.63 µM) | 2 µg/mL (≈ 5.63 µM) | 2 µg/mL (≈ 5.63 µM) | 1 µg/mL (≈ 2.81 µM) | > 4 µg/mL | 4 µg/mL (≈ 11.3 µM) | 2 µg/mL (≈ 5.63 µM) | 2 µg/mL (≈ 5.63 µM)
CCCCCCCCCCn1c(=O)c2c(O)cc(=O)oc2c2ccccc21 | > 64 µg/mL | 4 µg/mL (≈ 10.8 µM) | > 64 µg/mL | > 64 µg/mL | > 64 µg/mL | > 64 µg/mL | 0.5 µg/mL (≈ 1.35 µM) | 4 µg/mL (≈ 10.8 µM) | > 64 µg/mL
CCCCCCCn1c(=O)c2c(O)cc(=O)oc2c2cc(F)ccc21 | 8 µg/mL (≈ 23.2 µM) | 2 µg/mL (≈ 5.79 µM) | 4 µg/mL (≈ 11.6 µM) | 4 µg/mL (≈ 11.6 µM) | 2 µg/mL (≈ 5.79 µM) | > 64 µg/mL | 32 µg/mL (≈ 92.7 µM) | 4 µg/mL (≈ 11.6 µM) | 8 µg/mL (≈ 23.2 µM)
CCCCCCCn1c(=O)c2c(O)cc(=O)oc2c2cc(C(C)(C)C)ccc21 | 2 µg/mL (≈ 5.22 µM) | 1 µg/mL (≈ 2.61 µM) | 2 µg/mL (≈ 5.22 µM) | 1 µg/mL (≈ 2.61 µM) | 1 µg/mL (≈ 2.61 µM) | > 128 µg/mL | 4 µg/mL (≈ 10.4 µM) | 2 µg/mL (≈ 5.22 µM) | 0.25 µg/mL (≈ 0.652 µM)
CCCCCCCn1c(=O)c2c(O)cc(=O)oc2c2ccccc21 | 8 µg/mL (≈ 24.4 µM) | 4 µg/mL (≈ 12.2 µM) | 8 µg/mL (≈ 24.4 µM) | 8 µg/mL (≈ 24.4 µM) | 4 µg/mL (≈ 12.2 µM) | > 128 µg/mL | 16 µg/mL (≈ 48.9 µM) | 4 µg/mL (≈ 12.2 µM) | 4 µg/mL (≈ 12.2 µM)
CCCCCCCn1c(=O)c2c(O)cc(=O)oc2c2cc(Cl)ccc21 | 8 µg/mL (≈ 22.1 µM) | 1 µg/mL (≈ 2.76 µM) | > 128 µg/mL | 128 µg/mL (≈ 354 µM) | 1 µg/mL (≈ 2.76 µM) | > 128 µg/mL | 64 µg/mL (≈ 177 µM) | 1 µg/mL (≈ 2.76 µM) | 8 µg/mL (≈ 22.1 µM)
CCCCCCCCn1c(=O)c2c(O)cc(=O)oc2c2ccccc21 | 8 µg/mL (≈ 23.4 µM) | 2 µg/mL (≈ 5.86 µM) | 4 µg/mL (≈ 11.7 µM) | 4 µg/mL (≈ 11.7 µM) | 4 µg/mL (≈ 11.7 µM) | > 128 µg/mL | 1 µg/mL (≈ 2.93 µM) | 4 µg/mL (≈ 11.7 µM) | 1 µg/mL (≈ 2.93 µM)
CCCCCCCn1c(=O)c2c(O)cc(=O)oc2c2cc(C)ccc21 | > 128 µg/mL | 1 µg/mL (≈ 2.93 µM) | 64 µg/mL (≈ 187 µM) | > 128 µg/mL | > 128 µg/mL | 128 µg/mL (≈ 375 µM) | 32 µg/mL (≈ 93.7 µM) | 16 µg/mL (≈ 46.9 µM) | > 64 µg/mL
CCCCCCCn1c(=O)c2c(O)cc(=O)oc2c2cc(OC)ccc21 | 8 µg/mL (≈ 22.4 µM) | ≤ 8 µg/mL | ≤ 8 µg/mL | – | – | – | – | – | –
CCCCCCn1c(=O)c2c(O)cc(=O)oc2c2ccccc21 | 16 µg/mL (≈ 51.1 µM) | 8 µg/mL (≈ 25.5 µM) | 16 µg/mL (≈ 51.1 µM) | 8 µg/mL (≈ 25.5 µM) | 8 µg/mL (≈ 25.5 µM) | > 64 µg/mL | 8 µg/mL (≈ 25.5 µM) | 8 µg/mL (≈ 25.5 µM) | 2 µg/mL (≈ 6.38 µM)
CCCCCCCn1c(=O)c2c(O)cc(=O)oc2c2c(C)cc(C)cc21 | > 256 µg/mL | > 256 µg/mL | > 256 µg/mL | – | – | – | – | – | –
CCCCCCCn1c(=O)c2c(O)cc(=O)oc2c2cc(CCCCCC)ccc21 | 256 µg/mL (≈ 622 µM) | 256 µg/mL (≈ 622 µM) | > 256 µg/mL | – | – | – | – | – | –

Source: ChEMBL document CHEMBL5137100, “N-Alkyl-2-Quinolonopyrones Demonstrate Antimicrobial Activity against ESKAPE Pathogens Including Staphylococcus aureus” (2022)
